Experiments:
GPR55 [1] = molecular target: T1, GPR55 (Homo sapiens, UniProt Q9Y2T6); test: CSOD binding kinetics of a small molecule ligand to virion-displayed GPR55; design: made in house; host or cells: recombinant HSV-1 virions (VirD), made by collaborators at Johns Hopkins University; conditions: 1×PBS, global fitting with first-order kinetics
Description: An inverted microscope (Olympus IX-70 with 40× objective) with a CCD camera (Pike F-032, Allied Vision) was used for recording 14-bit grayscale image sequences at a frame rate of 106.5. A customized plate with 2 PDMS wells shown in FIGS. 1A and 1B was mounted on a motorized microscope stage (MAC 6000 modular automation controller, Ludl Electronic Products LTD.). Two steel electrodes (1 cm×3 cm) were placed 1 cm apart inside the well, then blocked with agarose electrophoresis gel. A green LED (505 nm, 400 mW, Thorlabs M505L3) light was coupled into the fiber via a focusing lens. Fiber is dipped into analyte solution between the electrophoresis gels. To control the fiber and move the fiber between the 2 wells, the fiber was clamped to a motorized arm (A-LSQ075B, Zaber). A sinusoidal potential was applied with a function generator (33521A, Agilent). A USB data acquisition card (USB-6229, National Instruments) was used to record voltage and current.
The tip (about 1 cm) of an optical fiber thread (about 20 cm) was first soaked in acetone for 1 minute and then rinsed with DI water and dried. The polymer coating layer on the optical fiber was then stripped off with an optical fiber stripper. The bare fiber was etched by soaking it in 47% hydrofluoric acid for 29 minutes and 15 seconds for a diameter of approximately 15 μm. The etched fiber was later rinsed with DI water to wash off the hydrofluoric acid and then blown dry with nitrogen. The tip was cut to about 9 mm long. Before functionalization, the optical fiber was cleaned with oxygen plasma for 3 minutes.
The etched fiber was soaked in (3-glycidyloxypropyl)trimethoxysilane (epoxy) solution (2.5% volume percentage of epoxy in isopropanol) for 1 hour for surface functionalization. The fiber was then rinsed with PBS buffer. […]
By fitting the kinetic curves at different concentrations globally with first-order kinetics, the association rate constant (ka), dissociation rate constant (kd) as well as equilibrium constant (KD) for both binding pairs are calculated.
Target sequence in this assay (Q9Y2T6 whole entry): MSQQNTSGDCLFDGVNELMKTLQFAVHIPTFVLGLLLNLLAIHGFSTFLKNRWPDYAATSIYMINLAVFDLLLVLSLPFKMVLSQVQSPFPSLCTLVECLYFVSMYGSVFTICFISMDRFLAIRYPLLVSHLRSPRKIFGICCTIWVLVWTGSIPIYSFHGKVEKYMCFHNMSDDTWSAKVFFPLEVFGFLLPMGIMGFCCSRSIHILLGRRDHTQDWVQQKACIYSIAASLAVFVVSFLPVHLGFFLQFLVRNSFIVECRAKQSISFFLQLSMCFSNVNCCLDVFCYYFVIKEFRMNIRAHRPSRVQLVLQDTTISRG

[2] = test system: empty virion K082 (no GPCR displayed); test: CSOD negative control with empty virion K082 modified fiber; assay type: binding, HSV-1
Description: Virions are functionalized to fiber surface via epoxy coupling, and the binding of respective small molecule antagonists B2 antagonist and Tocrifluor are studied in 1×PBS. First, the virions modified fiber tip was dipped into one well filled with 1×PBS buffer to establish a baseline. Subsequently, the fiber tip was switched from the buffer well to a sample well containing ligands to measure the binding or association process. At last, the fiber tip was switched back to the buffer well for dissociation studies. […] Solid lines are global fitting of the data with a first-order kinetic model. […] For both binding pairs, when no ligand is introduced, the baseline level is within the noise level, showing that the oscillation amplitude change was caused by the specific binding between the ligands and their corresponding receptors.

GPR55 [3] = molecular target: T1, GPR55; test: VirD oscillator method, Tocrifluor/GPR55 pair in diluted buffer; assay type: binding
Description: To study the impact of buffer ionic strength on the binding kinetics, the binding results in 1×PBS were compared with results measured in a more diluted buffer solution (40 times diluted 1×PBS) for the same experiments performed with ADRB2-B2 antagonist pair. The solid lines in FIG. 7 show the global fitting of the data with first-order kinetic model. […] Both of the GPCR binding pairs measured involve electrostatic interactions, since the reported binding site of GPR55 is hydrophilic, and ADRB2 is partially hydrophilic. Thus, the affinity measured under normal and diluted PBS are different. […] Due at least in part to the strong ionic screening effect in normal ionic strength buffer, the signal intensity is reduced to about half of the measurement in low ionic strength buffer while the noise remains at a similar level.
Target sequence in this assay (Q9Y2T6 whole entry, species assumed): as the sequence (Q9Y2T6 whole entry) above

## Tocrifluor
GPR55 [1]
  association rate constant ka: 9200 M⁻¹ s⁻¹
  dissociation rate constant kd: 0.00081 s⁻¹
GPR55 [1]; read-out: equilibrium constant KD
  Kd: 89 nM
[2]
  binding to empty virion K082: binds to neither
GPR55 [3]
  Kd: 160 ± 50 nM
